In patent US20230312550A1, “N-(2-(4-CYANOTHIAZOLIDIN-3-YL)-2-OXOETHYL)-QUINOLINE-4-CARBOXAMIDES” (AstraZeneca AB, priority 2020, published 2023):
Values after ≈ are worked out from the molar mass of the structure shown.

Tests used:
[1] = biological target: human Fibroblast activation protein alpha (hFAP) (Homo sapiens (Human), UniProt Q12884); assay: hFAP inhibition assay (tight binders); type: biochemical; details: Ala-Pro-AMC 20 μM, n = 1 or geometric mean n = 2-6; further: hFAP 2.4 pM
Protocol: The plates were read on a PHERAstar® reader with excitation 340 nm and emission 460 nm. Data were analyzed in Genedata Screener®. IC50 values were determined by plotting % inhibition versus log compound concentration and using a one site dose response model.

FAP = FAP (Homo sapiens (Human), UniProt Q12884); assay: hFAP inhibition assay; type: biochemical; details: Ala-Pro-AMC 20 μM, n = 1 or geometric mean n = 2-3
Method in brief: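 Human FAP (0.48 nM) in 100 mM Tris HCl, 100 mM NaCl, 0.05% Chaps, pH 7.4 was preincubated 15 min at rt in the dark with compounds (10-point, 3-fold series from 50 μM). Substrate was added from a 40 μM solution, then 30 min at rt. Fluorescence read at ex 340/em 460 nm; IC50 from one-site dose-response fit of % inhibition.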

[2] = Metabolic stability in human liver microsomes (HLM); details: human, HLM CLint, n = 1 or average of n = 2-3
Protocol: Metabolic stability in HLM was measured as described in J Comput Aided Mol Des 2015, 29, 795.

Caco-2 cell permeability = details: human
Protocol: Caco-2 cell permeability was measured as described in Mol Pharm 2017, 14, 1601.

[3] = biological target: Prolyl endopeptidase, Prolyl Oligopeptidase (hPREP) (Homo sapiens (Human), UniProt P48147); assay: hPrep inhibition assay; type: biochemical; details: hPREP 0.6 nM, Z-Gly-Pro-amino-methylcoumarin 50 μM; read-out: PREP IC50
Method in brief: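 Recombinant human PREP at 0.6 nM final with Z-Gly-Pro-AMC substrate at 50 μM final in Tris-HCl pH 7.5, NaCl, Triton X-100, glutathione; 15 min rt preincubation then 20 min rt reaction in dark. AMC fluorescence (ex 340/em 460 nm); IC50 from one-site dose-response fit of % inhibition.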

Kinetic solubility = details: kinetic from dmso stock, Solubility, kinetic solubility; n = 1 or average of n = 2-3
Protocol: Kinetic solubility was measured as described in Comput Aided Mol Des 2015, 29, 795.

hFAP (M39-A757) = hFAP (M39-A757) (Homo sapiens (Human), UniProt Q12884); assay: hFAP binding assay (surface plasmon resonance); details: SPR, 20° C.; for hFAP Binding assay k(off) / hFAP Binding assay k(on): single cycle kinetics; for Kd: n = 1 or geometric mean n = 2-4
[4] = Metabolic stability in rat hepatocytes (rHep); details: n = 1 or geometric mean of n = 2-3

Chain of FAP (Q12884 38-760): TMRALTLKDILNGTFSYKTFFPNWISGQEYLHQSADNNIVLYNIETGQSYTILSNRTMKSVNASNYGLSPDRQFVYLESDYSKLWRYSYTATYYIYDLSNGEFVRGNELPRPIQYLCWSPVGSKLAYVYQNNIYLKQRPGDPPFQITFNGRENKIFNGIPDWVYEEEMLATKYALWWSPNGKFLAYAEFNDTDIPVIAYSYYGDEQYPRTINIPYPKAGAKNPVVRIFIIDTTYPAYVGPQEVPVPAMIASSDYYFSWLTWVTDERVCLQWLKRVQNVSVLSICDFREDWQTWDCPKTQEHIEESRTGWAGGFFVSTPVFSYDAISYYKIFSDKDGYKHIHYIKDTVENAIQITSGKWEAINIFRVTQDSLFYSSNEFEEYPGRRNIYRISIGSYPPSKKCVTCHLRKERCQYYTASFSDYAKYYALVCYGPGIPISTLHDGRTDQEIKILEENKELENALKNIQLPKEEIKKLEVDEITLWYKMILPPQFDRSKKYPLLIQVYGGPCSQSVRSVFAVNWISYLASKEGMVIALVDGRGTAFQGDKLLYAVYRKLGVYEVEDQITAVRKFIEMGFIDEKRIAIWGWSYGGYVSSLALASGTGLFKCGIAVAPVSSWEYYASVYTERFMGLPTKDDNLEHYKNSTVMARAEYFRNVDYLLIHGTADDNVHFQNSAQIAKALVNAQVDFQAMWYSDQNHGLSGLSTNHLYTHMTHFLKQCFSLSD
Chain of human Fibroblast activation protein alpha (hFAP) (Q12884 38-760): as above
Chain of hFAP (M39-A757) (Q12884 39-757): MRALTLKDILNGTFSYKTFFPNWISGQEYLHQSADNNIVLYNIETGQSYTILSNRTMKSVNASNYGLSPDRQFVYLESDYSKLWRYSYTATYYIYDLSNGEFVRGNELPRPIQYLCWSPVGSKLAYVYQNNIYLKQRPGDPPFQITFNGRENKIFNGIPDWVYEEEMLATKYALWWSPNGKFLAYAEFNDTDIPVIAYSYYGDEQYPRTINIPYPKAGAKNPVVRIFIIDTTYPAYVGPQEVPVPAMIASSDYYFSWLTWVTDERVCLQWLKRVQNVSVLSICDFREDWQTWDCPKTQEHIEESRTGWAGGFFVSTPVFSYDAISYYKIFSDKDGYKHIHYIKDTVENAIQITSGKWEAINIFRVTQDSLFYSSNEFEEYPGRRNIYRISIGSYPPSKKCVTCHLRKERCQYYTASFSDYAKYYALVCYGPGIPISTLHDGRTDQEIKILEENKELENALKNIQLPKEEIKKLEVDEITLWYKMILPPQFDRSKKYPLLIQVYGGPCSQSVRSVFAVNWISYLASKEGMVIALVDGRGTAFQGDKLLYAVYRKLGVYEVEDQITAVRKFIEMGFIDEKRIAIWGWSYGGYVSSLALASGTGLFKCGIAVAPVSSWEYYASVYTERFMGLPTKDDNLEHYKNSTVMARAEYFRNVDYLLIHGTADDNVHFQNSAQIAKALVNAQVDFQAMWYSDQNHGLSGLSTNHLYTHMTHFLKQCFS
Chain of Prolyl endopeptidase, Prolyl Oligopeptidase (hPREP) (P48147 whole entry): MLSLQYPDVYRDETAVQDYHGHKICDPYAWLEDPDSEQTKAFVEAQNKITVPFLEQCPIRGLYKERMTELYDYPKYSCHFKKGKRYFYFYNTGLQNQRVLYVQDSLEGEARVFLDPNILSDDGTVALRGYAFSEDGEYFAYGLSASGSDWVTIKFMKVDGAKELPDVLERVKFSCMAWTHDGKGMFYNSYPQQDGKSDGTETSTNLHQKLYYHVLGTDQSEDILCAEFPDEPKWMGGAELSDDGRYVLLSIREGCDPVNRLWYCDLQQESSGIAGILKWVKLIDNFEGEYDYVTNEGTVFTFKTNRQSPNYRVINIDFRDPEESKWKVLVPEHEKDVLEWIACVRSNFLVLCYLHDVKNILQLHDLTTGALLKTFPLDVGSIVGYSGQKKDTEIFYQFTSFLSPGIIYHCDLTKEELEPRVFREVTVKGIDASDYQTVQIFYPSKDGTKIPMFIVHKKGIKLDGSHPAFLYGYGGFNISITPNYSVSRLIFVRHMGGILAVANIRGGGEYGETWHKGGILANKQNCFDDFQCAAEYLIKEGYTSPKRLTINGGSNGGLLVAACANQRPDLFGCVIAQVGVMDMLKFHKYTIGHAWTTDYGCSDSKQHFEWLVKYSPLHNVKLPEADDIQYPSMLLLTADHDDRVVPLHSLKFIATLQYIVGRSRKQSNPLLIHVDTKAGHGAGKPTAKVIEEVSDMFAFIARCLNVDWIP

Row | SMILES | IC50 [1] [nM] | IC50 (FAP; hFAP 0.24 nM) [nM] | microsomal CLint [2] [µL/min/mg] | Papp (Caco-2 cell permeability) [×10⁻⁶ cm/s] | IC50 [3] [nM] | solubility (Kinetic solubility) [µM] | hFAP Binding assay k(off) (hFAP (M39-A757)) [s⁻¹] | hFAP Binding assay k(on) (hFAP (M39-A757)) [M⁻¹ s⁻¹] | Kd (hFAP (M39-A757)) [nM] | rHep CLint [4] [μL/min/1E6] | IC50 (FAP; hFAP […]) [nM] | Papp A→B (Caco-2 cell permeability) [×10⁻⁶ cm/s] | Papp B→A (Caco-2 cell permeability) [×10⁻⁶ cm/s] | efflux ratio (Caco-2 cell permeability)
1 | CO[C@H]1CCCN(c2ccc3nccc(C(=O)NCC(=O)N4CSC[C@H]4C#N)c3c2)C1 (mixture of isomers) [Example 41, N-(2-((R)-4-Cyanothiazolidin-3-yl)-2-oxoethyl)-6-((RS)-3-methoxypiperidin-1-yl)quinoline-4-carboxamide] | 0.16 | 0.33 | 30 | 16 | 640 | 620 | 0.000064 | 680000 | 0.093 | 12 | – | – | – | –
2 | CC1(C)CCN(c2ccc3nccc(C(=O)NCC(=O)N4CSC[C@H]4C#N)c3c2)CC1 [Example 33, (R)—N-(2-(4-Cyanothiazolidin-3-yl)-2-oxoethyl)-6-(4,4-dimethylpiperidin-1-yl)quinoline-4-carboxamide] | 0.27 | – | 92 | – | 220 | 85 (≈ 37.2 µg/mL) | 0.000052 | 1100000 | 0.059 | 44 | 0.34 | 7.5 | 19 | 2.5
3 | N#C[C@@H]1CSCN1C(=O)CNC(=O)c1ccnc2ccc(-c3ccnc(F)c3)cc12 [Example 124, (R)—N-(2-(4-Cyanothiazolidin-3-yl)-2-oxoethyl)-6-(2-fluoropyridin-4-yl)quinoline-4-carboxamide] | 0.055 | – | 12 | – | 220 | 38 (≈ 16 µg/mL) | 0.00028 | 3000000 | 0.094 | 14 | 0.24 | 0.65 | 39 | 59
4 | Cc1ncccc1-c1ccc2nccc(C(=O)NCC(=O)N3CSC[C@H]3C#N)c2c1 [Example 128, (R)—N-(2-(4-Cyanothiazolidin-3-yl)-2-oxoethyl)-6-(2-methylpyridin-3-yl)-quinoline-4-carboxamide] | 0.24 | – | 27 | – | 110 | 960 (≈ 401 µg/mL) | 0.00066 | 5400000 | 0.15 | 11 | 0.45 | 0.57 | 26 | 45
5 | Cc1cccc(C2CN(c3ccc4nccc(C(=O)NCC(=O)N5CSC[C@H]5C#N)c4c3)C2)c1 [Example 186, (R)—N-(2-(4-Cyanothiazolidin-3-yl)-2-oxoethyl)-6-(3-(m-tolyl)azetidin-1-yl)quinoline-4-carboxamide] | 0.1 | – | 70 | – | 150 | 130 (≈ 61.3 µg/mL) | – | – | 0.045 | 24 | 0.27 | – | – | –

Further lines, results first:

Row | IC50 [1] [nM] | IC50 (FAP; hFAP 0.24 nM) [nM] | microsomal CLint [2] [µL/min/mg] | Papp (Caco-2 cell permeability) [×10⁻⁶ cm/s] | IC50 [3] [nM] | solubility (Kinetic solubility) [µM] | hFAP Binding assay k(off) (hFAP (M39-A757)) [s⁻¹] | hFAP Binding assay k(on) (hFAP (M39-A757)) [M⁻¹ s⁻¹] | Kd (hFAP (M39-A757)) [nM] | rHep CLint [4] [μL/min/1E6] | IC50 (FAP; hFAP […]) [nM] | Papp A→B (Caco-2 cell permeability) [×10⁻⁶ cm/s] | Papp B→A (Caco-2 cell permeability) [×10⁻⁶ cm/s] | efflux ratio (Caco-2 cell permeability) | SMILES
6 | 0.072 | – | 190 | – | 38 | 19 (≈ 9.61 µg/mL) | 0.00022 | 3100000 | 0.07 | 140 | 0.098 | – | – | – | N#C[C@@H]1CSCN1C(=O)CNC(=O)c1ccnc2ccc(N3CC(Cc4ccc(Cl)cc4)C3)cc12 [Example 187, (R)-6-(3-(4-Chlorobenzyl)azetidin-1-yl)-N-(2-(4-cyanothiazolidin-3-yl)-2-oxoethyl)quinoline-4-carboxamide]
7 | 0.42 | – | 15 | – | 1900 | 6 (≈ 2.61 µg/mL) | 0.000066 | 88000 | 0.75 | 5.3 | 0.72 | – | – | – | CC(C)n1nccc1-c1ccc2nccc(C(=O)NCC(=O)N3CSC[C@H]3C#N)c2c1 [Example 197, (R)—N-(2-(4-Cyanothiazolidin-3-yl)-2-oxoethyl)-6-(1-isopropyl-1H-pyrazol-5-yl)quinoline-4-carboxamide]
8 | 0.065 | – | 46 | – | 330 | 26 (≈ 10.6 µg/mL) | – | – | 0.033 | 130 | 0.22 | – | – | – | N#C[C@@H]1CSCN1C(=O)CNC(=O)c1ccnc2ccc(N3CC4CC4C3)cc12 (stereo partly drawn) [Example 206, 6-(3-Azabicyclo[3.1.0]hexan-3-yl)-N-(2-((R)-4-cyanothiazolidin-3-yl)-2-oxoethyl)quinoline-4-carboxamide]
9 | 0.11 | – | 72 | – | 210 | 1.6 (≈ 0.761 µg/mL) | 0.00026 | 5600000 | 0.046 | 12 | 0.22 | – | – | – | N#C[C@@H]1CSCN1C(=O)CNC(=O)c1ccnc2ccc(N3C[C@@H]4[C@H](C3)[C@H]4C(F)(F)F)cc12 [Example 208, N-(2-((R)-4-Cyanothiazolidin-3-yl)-2-oxoethyl)-6-((1R,5S,6R)-6-(trifluoromethyl)-3-azabicyclo[3.1.0]hexan-3-yl)quinoline-4-carboxamide]
10 | 0.1 | – | 200 | – | 110 | 110 (≈ 45 µg/mL) | 0.0002 | 5900000 | 0.049 | 190 | 0.2 | – | – | – | C[C@@H]1CCCN1c1ccc2nccc(C(=O)NCC(=O)N3CSC[C@H]3C#N)c2c1 [Example 211, N-(2-((R)-4-cyanothiazolidin-3-yl)-2-oxoethyl)-6-((R)-2-methylpyrrolidin-1-yl)quinoline-4-carboxamide]
11 | 0.26 | – | 110 | – | 330 | 16 (≈ 7.03 µg/mL) | 0.00034 | 3300000 | 0.1 | 57 | 0.29 | – | – | – | COC[C@@H]1CCCN1c1ccc2nccc(C(=O)NCC(=O)N3CSC[C@H]3C#N)c2c1 [Example 212, N-(2-((R)-4-Cyanothiazolidin-3-yl)-2-oxoethyl)-6-((S)-2-(methoxymethyl)-pyrrolidin-1-yl)quinoline-4-carboxamide]
12 | 0.039 | – | 31 | – | 470 | 100 (≈ 43.1 µg/mL) | 0.00017 | 4400000 | 0.039 | 19 | 0.18 | – | – | – | N#C[C@@H]1CSCN1C(=O)CNC(=O)c1ccnc2ccc(N3C[C@H](F)[C@@H](F)C3)cc12 [Example 213, N-(2-((R)-4-Cyanothiazolidin-3-yl)-2-oxoethyl)-6-((3S,4S)-3,4-difluoro-pyrrolidin-1-yl)quinoline-4-carboxamide]
